The subject of assay [1] is MKN45 (wt-p53, wt-KRAS, MET amplified). Put plainly: 72 hr viability by CTG, gastric cancer cells. The class given is cell-based. The note with it: Homo sapiens, MKN-45, viability by CTG (upper). How it is done: (§1) Many of the oncoproteins associated with gastric cancer and Hsp90 client proteins including HER2, MET, RAS and the FGFR family. Ganetespib was evaluated for its effect on the growth of AGS (wt-p53 and mut-KRAS) and MKN45 (wt-p53, wt-KRAS, MET amplified) gastric cancer cells.

Assay [2] has as its system AGS (wt-p53 and mut-KRAS). The assay is described as follows: 72 hr viability by CTG, gastric cancer cells. The format is cell-based. The note with it: viability by CTG (upper). How it is done: as §1
The subject of a further assay is HIF-1α and VEGF. The assay is described as follows: Western blot of HIF-1α and VEGF in pancreatic cancer cell lines. The class given is cell-based. The note with it: 50 nM, 24 h. How it is done: It's postulated that functional inhibition of Hsp90 by ganetespib can inhibit angiogenesis and growth in vitro and in vivo models of pancreatic cancer. PANC-1 and HPAC cell lines were treated with vehicle or G (50 nM) for 24 h and lysates were analyzed by Western blot. Egg CAM and matrigel plug assays were performed to quantify the effects of ganetespib on angiogenesis. Efficacy of ganetespib (100 mg/kg) was assessed in mice bearing HPAC and ASPC-1 xenograft.
Primary antibodies specific to Hsp90, HIF-1α, VEGF, Actin and HRP conjugated secondary antibodies (Santa Cruz Biotechnology, California and Cell Signaling Technology, USA) were used for Western blot. Ganetespib was provided by Synta Pharmaceuticals, Lexington, Mass. and Matrigel was purchased from BD Biosciences.
Cells were harvested at the end of treatment and lysed in the RIPA protein extraction buffer (Sigma-Aldrich, Saint Louis, Mo., USA) containing the protease inhibitor cocktail. Equal amounts of protein fractions of lysates were resolved over SDS-PAGE and transferred on to PVDF membrane. Membranes were incubated with primary antibodies followed by HRP-conjugated secondary antibodies. Bound antibodies were visualized using enhanced chemiluminescence. To confirm equal loading, membranes were verified and re-probed with an antibody specific for the housekeeping gene, anti-β-actin.

Another assay concerns RCC. The note with it: cited from earlier work.
For a further assay, the system named is melanoma. The following applies: cited from earlier work.
A further assay concerns pancreatic cancer. The note with it: cited from earlier work.
A further assay deals with prostate cancer. The following applies: cited from earlier work.
The subject of assay [3] is Chk1 and Chk2 phosphorylation. Put plainly: Western blot of Chk1 and Chk2 phosphorylation after bleomycin in Detroit 562 cells. The following applies: Detroit 562, bleomycin (5 μM). The class given is cell-based. How it is done: Protein expression was measured at the indicated time points after bleomycin treatment.
Cell extracts from Detroit 562 head and neck cancer cells were treated with 100 nM of ganetespib 24 hours prior to receiving the DNA damaging agent bleomycin (5 μM). Protein expression was measured at the indicated time points after bleomycin treatment.

Another assay concerns A549 NSCLC cells. The assay is described as follows: Mouse xenograft tumor model, ganetespib and BEZ235 (Example 9). The class given is in vivo, mice. The note with it: ganetespib 50 mg/kg weekly i.v.; BEZ235 10 mg/kg 5 times a week p.o.; particularly at later time points; FIG. 8. From the text:
Female immunodeficient CD-1 (nude) mice (Charles River Laboratories, Wilmington, Mass.) were maintained in a pathogen-free environment, and all in vivo procedures were approved by the Synta Pharmaceuticals Corp. Institutional Animal Care and Use Committee. A549 NSCLC cells (7.5×10^6) were subcutaneously implanted into the animals. Mice bearing established tumors (100-200 mm^3) were randomized into treatment groups of 8 and i.v. dosed via the tail vein with either vehicle, ganetespib formulated in 10/18 DRD (10% DMSO, 18% Cremophor RH 40, 3.6% dextrose, 68.4% water) or p.o. dosed with BEZ235 formulated in PEG300/NMP (90% PEG300, 10% N-Methylpyrrolidone). Animals were treated with ganetespib at 50 mg/kg weekly or BEZ235 at 10 mg/kg 5 times a week, either alone or in combination. Tumor growth inhibition was determined as described previously. See Proia et al, PLoS One. 2011; 6(4):e18552.

In a further assay the test system is colon cancer first line. The note with it: cited from earlier work.
Another assay relates to colon cancer second line. The note with it: cited from earlier work.

Where two headings read alike, the source gives them in different places.

Turning to `C=CCNC1=C2C[C@@H](C)C[C@H](OC)[C@H](O)[C@@H](C)/C=C(\C)[C@H](OC(N)=O)[C@@H](OC)/C=C\C=C(/C)C(=O)NC(=CC1=O)C2=O` [17-AAG, 17-allyamino-geldanamycin], the IC50 worked out at 1 nM in [1] and 50 nM in assay [2].

“3-2,4-dihydroxy-5-isopropyl-phenyl)-4-(1-methyl-indol-5-yl)-5-hydroxy-[1,2,4]triazole [ganetespib]”: in the assay with HIF-1α and VEGF, the “HIF-1α and VEGF protein levels” value was “significant reduction”.

For the molecule `CO[C@H]1C[C@@H]2CC[C@@H](C)[C@@](O)(O2)C(=O)C(=O)N2CCCC[C@H]2C(=O)O[C@H]([C@H](C)C[C@@H]2CC[C@@H](OC(=O)C(C)(CO)CO)[C@H](OC)C2)CC(=O)[C@H](C)/C=C(\C)[C@@H](O)[C@@H](OC)C(=O)[C@H](C)C[C@H](C)/C=C/C=C/C=C/1C` [temsirolimus], the “OS HR” value in the assay with RCC (high LDH, P=0.002) is recorded as 0.56; with RCC (normal LDH, P=0.51) it was 0.90.

For the molecule “bevacizumab: anti-cancer agent cited from large randomized phase 2 and phase 3 studies”, the “OS HR” value in the assay on melanoma (high LDH, 95% CI 0.32-0.88) is reported as 0.53; in the assay on melanoma (normal LDH, 95% CI 0.73-1.25), 1.25; in the assay on pancreatic cancer (high LDH, 95% CI 0.43-0.82) it was 0.59; with prostate cancer (high LDH, P=0.029), 0.80; in the assay with prostate cancer (normal LDH, P=0.87) it was 1.02. Moreover, the HR in the assay with pancreatic cancer (normal LDH, 95% CI 0.78-1.24) is recorded as 0.98.

Consider Bleomycin [reference compound], for which the “Chk1 and Chk2 phosphorylation” value in assay [3] is “increased both Chk1 and Chk2 phosphorylation”.

On to `Cn1c(=O)n(-c2ccc(C(C)(C)C#N)cc2)c2c3cc(-c4cnc5ccccc5c4)ccc3ncc21` [BEZ235, reference compound], for which the “Average tumor volume as compared to vehicle” value with A549 NSCLC cells is recorded as “significantly reduced”.

Turning to `CC(=O)O[C@@]12CO[C@@H]1C[C@H](O)[C@@]1(C)C(=O)[C@H](O)C3=C(C)[C@@H](OC(=O)[C@H](O)[C@@H](NC(=O)OC(C)(C)C)c4ccccc4)C[C@@](O)([C@@H](OC(=O)c4ccccc4)[C@H]21)C3(C)C` [Docetaxel], the IC50 came out at 0.1 nM in assay [1] and 0.3 nM in [2].

On to `Clc1ccc(Nc2nnc(Cc3ccncc3)c3ccccc23)cc1` [vatalanib], for which the “PFS HR” value in the assay on colon cancer first line (LDH group not given, P=0.188) was 0.88; with colon cancer first line (high LDH, P=0.009), 0.67; in the assay with colon cancer second line (LDH group not given, P=0.01), 0.83; with colon cancer second line (high LDH, P<0.001) it was 0.63.

What is called IC50 is the point on the concentration scale where inhibition reaches its midpoint.

These data come from patent US20150253330A1, “PRE-SELECTION OF SUBJECTS FOR THERAPEUTIC TREATMENT WITH AN HSP90 INHIBITOR BASED ON HYPOXIC STATUS” (Synta Pharmaceuticals Corp., priority 2012, published 2015).
